From patent publication US12110294B2, “CD73 compounds” (Gilead Sciences, Inc., priority 2020, dated 2024)

molecular target: T1, CD73 activity in MDA-MB-231-GFP cells (Homo sapiens, UniProt P21589); experiment: MDA-MB-231 Cell Based CD73 Activity Assay (DMEM); settings: 3000 cells per well, DMEM medium with 10% human plasma, overnight compound treatment, AMP 200 uM
T1 construct: endogenous in cells; host or cells: MDA-MB-231-GFP cells
T1 sequence (P21589 27-549): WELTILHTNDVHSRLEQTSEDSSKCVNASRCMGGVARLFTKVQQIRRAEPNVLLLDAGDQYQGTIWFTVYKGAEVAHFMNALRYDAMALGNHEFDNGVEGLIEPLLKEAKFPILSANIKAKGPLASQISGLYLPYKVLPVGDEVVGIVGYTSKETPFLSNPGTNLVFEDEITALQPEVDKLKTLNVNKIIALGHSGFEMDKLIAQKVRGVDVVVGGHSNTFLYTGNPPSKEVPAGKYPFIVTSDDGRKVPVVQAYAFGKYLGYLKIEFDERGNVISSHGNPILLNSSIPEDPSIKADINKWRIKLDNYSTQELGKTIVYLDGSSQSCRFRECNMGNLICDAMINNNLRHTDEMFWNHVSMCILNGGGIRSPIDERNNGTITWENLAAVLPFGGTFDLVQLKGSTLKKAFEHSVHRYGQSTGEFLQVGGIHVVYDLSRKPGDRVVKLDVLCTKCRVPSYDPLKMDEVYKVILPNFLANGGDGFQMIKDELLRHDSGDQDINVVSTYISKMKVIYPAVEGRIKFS

EC50 [nM]	SMILES
4.17	CNC(=O)c1ccc([C@H]2C[C@@H]2c2cc(-c3c[nH]c(=O)[nH]c3=O)nn3c(F)cnc23)cc1 (racemic) [Example 312, 4-((2S,2S)-2-(6-(2,4-dioxo-1,2,3,4-tetrahydropyrimidin-5-yl)-3-fluoroimidazo[1,2-b]pyridazin-8-yl)cyclopropyl)-N-methylbenzamide]
11.2	Cc1nc2cc([C@H]3C[C@@H]3c3cc(-c4c[nH]c(=O)[nH]c4=O)nn4ccnc34)ccc2s1 (racemic) [Example 321, 5-(8-((2S,2S)-2-(2-methylbenzo[d]thiazol-5-yl)cyclopropyl)imidazo[1,2-b]pyridazin-6-yl)pyrimidine-2,4(1H,3H)-dione]
2.66	Cn1ncc2ccc([C@H]3C[C@@H]3c3cc(-c4c[nH]c(=O)[nH]c4=O)nn4ccnc34)cc21 (racemic) [Example 326, 5-(8-((1S,2S)-2-(1-methyl-1H-indazol-6-yl)cyclopropyl)imidazo[1,2-b]pyridazin-6-yl)pyrimidine-2,4(1H,3H)-dione]
22	O=c1[nH]cc(-c2cc([C@H]3C[C@@H]3c3ccc(OC(F)(F)F)cc3)c3nccn3n2)c(=O)[nH]1 (racemic) [Example 359, 5-(8-((1S,2S)-2-(4-(trifluoromethoxy)phenyl)cyclopropyl)imidazo[1,2-b]pyridazin-6-yl)pyrimidine-2,4(1H,3H)-dione]
15.7	O=c1[nH]cc(-c2cc([C@H]3C[C@@H]3c3cnn(C(F)F)c3)c3ncc(F)n3n2)c(=O)[nH]1 (racemic) [Example 370, 5-(8-((1S,2S)-2-(1-(difluoromethyl)-1H-pyrazol-4-yl)cyclopropyl)-3-fluoroimidazo[1,2-b]pyridazin-6-yl)pyrimidine-2,4(1H,3H)-dione]
13.8	O=c1[nH]cc(-c2cc([C@H]3C[C@@H]3c3ccc(OC(F)(F)F)cn3)c3ncc(F)n3n2)c(=O)[nH]1 (racemic) [Example 374, 5-(3-fluoro-8-((2S,2S)-2-(5-(trifluoromethoxy)pyridin-2-yl)cyclopropyl)imidazo[1,2-b]pyridazin-6-yl)pyrimidine-2,4(1H,3H)-dione]
18.9	O=c1[nH]cc(-c2cc([C@H]3C[C@@H]3c3ncc(C(F)(F)F)cn3)c3ncc(F)n3n2)c(=O)[nH]1 (racemic) [Example 378, 5-(3-fluoro-8-((1S,2S)-2-(5-(trifluoromethyl)pyrimidin-2-yl)cyclopropyl)imidazo[1,2-b]pyridazin-6-yl)pyrimidine-2,4(1H,3H)-dione]
14.7	N#Cc1ccc([C@H]2C[C@@H]2c2cc(-c3c[nH]c(=O)[nH]c3=O)nn3ccnc23)c(F)c1 (racemic) [Example 407, 4-((2S,2S)-2-(6-(2,4-dioxo-1,2,3,4-tetrahydropyrimidin-5-yl)imidazo[1,2-b]pyridazin-8-yl)cyclopropyl)-3-fluorobenzonitrile]
7.44	N#Cc1cccc([C@H]2C[C@@H]2c2cc(-c3c[nH]c(=O)[nH]c3=O)nn3ccnc23)c1F (racemic) [Example 408, 3-((1S,2S)-2-(6-(2,4-dioxo-1,2,3,4-tetrahydropyrimidin-5-yl)imidazo[1,2-b]pyridazin-8-yl)cyclopropyl)-2-fluorobenzonitrile]

The remaining lines, values behind:

SMILES	EC50 [nM]
O=c1[nH]cc(-c2cc([C@H]3C[C@@H]3c3ccc(OCC(F)(F)F)cn3)c3nccn3n2)c(=O)[nH]1 (racemic) [Example 363, 5-(8-((1S,2S)-2-(5-(2,2,2-trifluoroethoxy)pyridin-2-yl)cyclopropyl)imidazo[1,2-b]pyridazin-6-yl)pyrimidine-2,4(1H,3H)-dione]	5.5
O=c1[nH]cc(-c2cc([C@H]3C[C@@H]3c3ncc(C(F)(F)F)s3)c3nccn3n2)c(=O)[nH]1 (racemic) [Example 364, 5-(8-((1S,2S)-2-(5-(trifluoromethyl)thiazol-2-yl)cyclopropyl)imidazo[1,2-b]pyridazin-6-yl)pyrimidine-2,4(1H,3H)-dione]	34
O=c1[nH]cc(-c2cc([C@H]3C[C@@H]3c3cnn(C(F)(F)F)c3)c3nccn3n2)c(=O)[nH]1 (racemic) [Example 366, 5-(8-((1S,2S)-2-(1-(trifluoromethyl)-1H-pyrazol-4-yl)cyclopropyl)imidazo[1,2-b]pyridazin-6-yl)pyrimidine-2,4(1H,3H)-dione]	16.4
O=c1[nH]cc(-c2cc([C@H]3C[C@@H]3c3cnn(C(F)F)c3)c3nccn3n2)c(=O)[nH]1 (racemic) [Example 368, 5-(8-((2S,2S)-2-(1-(difluoromethyl)-1H-pyrazol-4-yl)cyclopropyl)imidazo[1,2-b]pyridazin-6-yl)pyrimidine-2,4(1H,3H)-dione]	20.3
O=c1[nH]cc(-c2cc([C@H]3C[C@@H]3c3ccn(C(F)F)n3)c3nccn3n2)c(=O)[nH]1 (racemic) [Example 369, 5-(8-((1S,2S)-2-(1-(difluoromethyl)-1H-pyrazol-3-yl)cyclopropyl)imidazo[1,2-b]pyridazin-6-yl)pyrimidine-2,4(1H,3H)-dione]	27.5
O=c1[nH]cc(-c2cc([C@H]3C[C@@H]3c3ccc(OC(F)(F)F)cn3)c3nccn3n2)c(=O)[nH]1 (racemic) [Example 372, 5-(8-((1S,2S)-2-(5-(trifluoromethoxy)pyridin-2-yl)cyclopropyl)imidazo[1,2-b]pyridazin-6-yl)pyrimidine-2,4(1H,3H)-dione]	9.23
O=c1[nH]cc(-c2cc([C@H]3C[C@@H]3c3ccc(OC(F)(F)F)nc3)c3nccn3n2)c(=O)[nH]1 (racemic) [Example 376, 5-(8-((2S,2S)-2-(6-(trifluoromethoxy)pyridin-3-yl)cyclopropyl)imidazo[1,2-b]pyridazin-6-yl)pyrimidine-2,4(1H,3H)-dione]	19.3
O=c1[nH]cc(-c2cc([C@H]3C[C@@H]3c3ncc(C(F)(F)F)cn3)c3nccn3n2)c(=O)[nH]1 (racemic) [Example 377, 5-(8-((1S,2S)-2-(5-(trifluoromethyl)pyrimidin-2-yl)cyclopropyl)imidazo[1,2-b]pyridazin-6-yl)pyrimidine-2,4(1H,3H)-dione]	22.6
N#Cc1ccc([C@H]2C[C@@H]2c2cc(-c3c[nH]c(=O)[nH]c3=O)nn3ccnc23)cc1C(F)(F)F (racemic) [Example 411, 4-((1S,2S)-2-(6-(2,4-dioxo-1,2,3,4-tetrahydropyrimidin-5-yl)imidazo[1,2-b]pyridazin-8-yl)cyclopropyl)-2-(trifluoromethyl)benzonitrile]	42.6
N#Cc1cc([C@H]2C[C@@H]2c2cc(-c3c[nH]c(=O)[nH]c3=O)nn3ccnc23)ccc1C(F)(F)F (racemic) [Example 412, 5-((2S,2S)-2-(6-(2,4-dioxo-1,2,3,4-tetrahydropyrimidin-5-yl)imidazo[1,2-b]pyridazin-8-yl)cyclopropyl)-2-(trifluoromethyl)benzonitrile]	38.3
N#Cc1ccc([C@H]2C[C@@H]2c2cc(-c3c[nH]c(=O)[nH]c3=O)nn3ccnc23)cc1OC(F)(F)F (racemic) [Example 413, 4-((2S,2S)-2-(6-(2,4-dioxo-1,2,3,4-tetrahydropyrimidin-5-yl)imidazo[1,2-b]pyridazin-8-yl)cyclopropyl)-2-(trifluoromethoxy)benzonitrile]	34.6
N#Cc1cc([C@H]2C[C@@H]2c2cc(-c3c[nH]c(=O)[nH]c3=O)nn3ccnc23)ccc1OC(F)(F)F (racemic) [Example 414, 5-((2S,2S)-2-(6-(2,4-dioxo-1,2,3,4-tetrahydropyrimidin-5-yl)imidazo[1,2-b]pyridazin-8-yl)cyclopropyl)-2-(trifluoromethoxy)benzonitrile]	43.8
O=c1[nH]cc(-c2cc(N3CC(Oc4ccc(C(F)(F)F)cn4)C(F)(F)C3)c3ncnn3n2)c(=O)[nH]1 (racemic) [Example 432, 5-(8-(3,3-difluoro-4-((5-(trifluoromethyl)pyridin-2-yl)oxy)pyrrolidin-1-yl)-[1,2,4]triazolo[1,5-b]pyridazin-6-yl)pyrimidine-2,4(1H,3H)-dione]	2.58
O=c1[nH]cc(-c2cc(N3CCC(CC(F)(F)F)C3)c3nccn3n2)c(=O)[nH]1 (racemic) [Example 452, 5-(8-(3-(2,2,2-trifluoroethyl)pyrrolidin-1-yl)imidazo[1,2-b]pyridazin-6-yl)pyrimidine-2,4(1H,3H)-dione]	94.8
O=c1[nH]cc(-c2cc(N3CCC(CC(F)F)C3)c3nccn3n2)c(=O)[nH]1 (racemic) [Example 453, 5-(8-(3-(2,2-difluoroethyl)pyrrolidin-1-yl)imidazo[1,2-b]pyridazin-6-yl)pyrimidine-2,4(1H,3H)-dione]	112
O=c1[nH]cc(-c2cc([C@H]3C[C@@H]3c3nc4ccccc4[nH]3)c3nccn3n2)c(=O)[nH]1 (racemic) [Example 461, 5-(8-((1S,2S)-2-(1H-benzo[d]imidazol-2-yl)cyclopropyl)imidazo[1,2-b]pyridazin-6-yl)pyrimidine-2,4(1H,3H)-dione]	11.6
O=c1[nH]cc(-c2cc([C@H]3C[C@@H]3c3ccc(F)c(F)c3F)c3nccn3n2)c(=O)[nH]1 (racemic) [Example 464, 5-(8-((2S,2S)-2-(2,3,4-trifluorophenyl)cyclopropyl)imidazo[1,2-b]pyridazin-6-yl)pyrimidine-2,4(1H,3H)-dione]	16.2
